Data: patent publication US20230338532A1, “IMMUNOSUPPRESSANT DRUG RESISTANT ARMORED TCR T CELLS FOR IMMUNE-THERAPY OF ORGAN TRANSPLANT PATIENTS” (priority 2020, published 2023)

Key:
Assay type in all cases: cell-based, human
HepG2.2.15 cells [1] = experiment: TNF-α production of TCR T cells after overnight co-culture with HepG2.2.15 cells; details: clinically relevant concentration
Experimental: FIGS. 1A and 1B show functional profiles of 5183-electroporated T cells treated with tacrolimus. Cytokine production (TNF-α as a representative) of drug-treated S183 TCR-T cells was evaluated following overnight co-culture with HepG2.215 cells. FIG. 1A: Concatenated dot plots (left panel) from representative experiments stained for TNF-α production. […] Non-treated electroporated T cells used as negative control. FIG. 1B: Drug effect on T cell cytolysis determined through impedance measurement. The Normalized Cell Index plot was converted to an area under the curve, and quantified to measure the percentage of cytolysis ˜45 hours after S183-TCR T cell addition. […] Statistical significance was evaluated by 2-tailed t test. […]
FIG. 3A: S183 TCR and mutant CnB m-RNA were co-electroporated and T cell function was evaluated following overnight co-culture with HepG2.2.15 cells. FIG. 3B: Viability and TCR expression of engineered T cells evaluated 24 hours post-electroporation. […] FIG. 3C: Frequency of TNF-α-producing CD8+ cells out of total live CD8+ T cells were quantified following overnight incubation with the targets (n=3). […]
FIG. 5A: Sequence information of siRNA specific for FKBP1A. FIG. 5B: Frequency of TNF-α-producing CD8+ cells out of total live CD8+ T cells were quantified following overnight incubation with the targets and different concentrations of Tacrolimus (n=3). […]

T cells = experiment: Viability of engineered T cells exposed to immunosuppressants; details: clinically relevant concentration, 48 hours exposure
Experimental: Intracellular cytokine staining and viability analysis were performed at the indicated time after treatment.

HepG2.2.15 cells [2] = experiment: T cell cytolysis by impedance measurement (real time killing assay); details: clinically relevant doses, FIG. 1B
Experimental: FIGS. 1A and 1B show functional profiles of 5183-electroporated T cells treated with tacrolimus. Cytokine production (TNF-α as a representative) of drug-treated S183 TCR-T cells was evaluated following overnight co-culture with HepG2.215 cells. FIG. 1A: Concatenated dot plots (left panel) from representative experiments stained for TNF-α production. […] Non-treated electroporated T cells used as negative control. FIG. 1B: Drug effect on T cell cytolysis determined through impedance measurement. The Normalized Cell Index plot was converted to an area under the curve, and quantified to measure the percentage of cytolysis ˜45 hours after S183-TCR T cell addition. Each dot represents one individual experiment in bar graphs. Statistical significance was evaluated by 2-tailed t test. […]
FIGS. 6A, 6B and 6C show dual-resistant TCR-redirected T cells were produced by electroporating 3 mRNAs (HBV TCR, CnB mutant and IMPDH mutant) into the T cells. FIG. 6A: Frequency of TNF-α-producing CD8+ cells out of total live CD8 T cells was quantified following overnight incubation with the targets (n=3). […] FIG. 6B: T cell cytolysis determined by real time killing assay in the presence and absence of both drugs. […] FIG. 6C: Viability of dual resistant TCR-T cells evaluated 72 hours after exposure to clinically relevant concentration of both drugs.

SMILES | effect on T cell function and killing (HepG2.2.15 cells [1]) | effect on viability of modified TCR-T cells (T cells) | effect on T cell TNF-α production (HepG2.2.15 cells [1]; 12 hours incubation with HepG2.2.15 cells) | loss of cytolytic activity of treated T cells (HepG2.2.15 cells [2])
COc1c(C)c2c(c(O)c1C/C=C(\C)CCC(=O)OCCN1CCOCC1)C(=O)OC2 [MMF, Mycophenolate mofetil] | does not impair T cell function and killing | markedly decreases the viability |  | 
C=CC[C@@H]1/C=C(\C)C[C@H](C)C[C@H](OC)[C@H]2O[C@@](O)(C(=O)C(=O)N3CCCC[C@H]3C(=O)O[C@H](/C(C)=C/[C@@H]3CC[C@@H](O)[C@H](OC)C3)[C@H](C)[C@@H](O)CC1=O)[C@H](C)C[C@@H]2OC [Tacrolimus] |  |  | can impair T cell TNF-α production | ≤ 50 % of the non-treated control
